Experimental data from the NIST ThermoML archive (doi:10.1021/je300530z).

Legend:
[1] = 100 kPa, Liquid, Vibrating tube method
[2] = wn = mass fraction of the nth substance listed; settings: Liquid, Vibrating tube method

CN(CCO)CCO [N-methyldiethanolamine]
[1]
Settings	mass density [kg/m3]
293.15 K	1039.9
303.15 K	1032.4
313.15 K	1024.9
323.15 K	1017.2
333.15 K	1009.5
343.15 K	1001.7
353.15 K	993.9
363.15 K	986
373.15 K	978.28
383.15 K	970.22
393.15 K	962.03
403.15 K	953.71
413.15 K	945.29
423.15 K	936.81

CN(CCO)CCO [N-methyldiethanolamine] + O
mass density [kg/m3], [2]
Settings	w1 = 0.5	w1 = 0.6	w1 = 0.7	w1 = 0.8
293.15 K, 101 kPa	1045.8	1052.6	1056.1	1055.5
303.15 K, 101 kPa	1039.6	1045.8	1048.8	1048.1
313.15 K, 101 kPa	1033	1038.6	1041.3	1040.5
323.15 K, 101 kPa	1026.1	1031.2	1033.6	1032.6
333.15 K, 101 kPa	1018.9	1023.6	1025.6	1024.6
343.15 K, 101 kPa	1011.4	1015.6	1017.4	1016.4
353.15 K, 101 kPa	1003.5	1007.4	1009	1007.9
363.15 K, 101 kPa	995.3	998.9	1000.4	999.3
373.15 K, 800 kPa	987	990.32	991.79	990.82
383.15 K, 800 kPa	978.16	981.18	982.65	981.74
393.15 K, 800 kPa	968.93	971.76	973.23	972.51
403.15 K, 800 kPa	959.28	962.08	963.68	963.09
413.15 K, 800 kPa	949.4	952.13	953.72	953.38
423.15 K, 800 kPa	939.06	941.91	943.63	943.53
